From US6448205B1, “Substituted 2-phenylpyridine as herbicide” (BASF Aktiengesellschaft, priority 1996, dated 2002) come the findings set out here.

One may read the melting point as the temperature, or range, at which the solid turns liquid.

Molecules are shown by their SMILES.

`COc1cc(-c2ncc([S+](C)[O-])cc2Cl)c(F)cc1Cl` (stereo not shown) [No. 6, 3-Chloro-2-(4-chloro-2-fluoro-5-methoxyphenyl)-5-methylsulfinylpyridine] returned a melting point of 118 °C.
